{"source": "paper PMC10214526", "about": "“Semisynthetic LC3 Probes for Autophagy Pathways Reveal a Noncanonical LC3 Interacting Region Motif Crucial for the Enzymatic Activity of Human ATG3” (ACS Central Science, 2023)", "key": {"[1]": {"molecular_target": "T1, ATG3 C1–GABARAP (probe 2) complex formation (Homo sapiens, UniProt O95166)", "T1 construct": "SUMO2 (N, cleaved yes); Mxe GyrA intein-His6 (C, cleaved yes); made in house; host or cells: E. coli Rosetta-CodonPlus (DE3)-RIL", "T1 sequence (O95166 1-115 limits assumed, one chain of several)": "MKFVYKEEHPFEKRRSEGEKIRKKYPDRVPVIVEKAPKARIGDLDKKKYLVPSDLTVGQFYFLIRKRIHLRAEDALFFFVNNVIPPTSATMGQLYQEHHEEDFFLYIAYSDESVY", "experiment": "Competition assay: LIR^ATG3 peptides vs cross-linking of GABARAP methyl fumarate probe 2 with ATG3 C1", "type": "biochemical", "settings": "probe 2 (15 μM) with ATG3 C1 in the presence of increasing amounts of peptide", "experimental": "To exclude an effect of LIR deletion on protein activity we performed a competition experiment with chemically prepared LIR (L94-H112) peptide 5. Probe 2 (15 μM) was incubated with ATG3 C1 in the presence of increasing amounts of 5. […] We also postulated that cyclization of the LIR peptide would recapitulate its β-sheet conformation and lead to tighter binding than the linear peptide due to preorganization.[37] […] Cyclic peptide 6 was prepared by solid-phase peptide synthesis followed by cyclization using selective cysteine alkylation (Figure S11).[39],[40] […] Additionally, we confirmed the interaction of LIR^ATG3 peptides with GABARAP and LC3A by fluorescence polarization (Figure 2e–g). LIR^ATG3-derived peptides bind to both LC3A and GABARAP. As indicated by the competition experiments, cyclic peptides bound markedly tighter to GABARAP and LC3A than the linear peptides. […]\nFigure 2 Characterization of LIR^ATG3. a. […] Quantification of competition assays shown in b and c. The amount of GABARAP–ATG3 C1 complex was quantified by gel-densitometry and normalized to the reaction without peptide for each gel. […] Fluorescence polarization binding-data of fluorescein-modified LIR^ATG3 peptide binding to GABARAP. […] Fluorescence polarization data of fluorescein-modified LIR^ATG3 peptide binding to LC3A. […]\nFarnung et al. Supplementary Information and monitored using LC-MS analysis. […]"}, "[2]": {"experiment": "Circular dichroism spectroscopy of LIR^ATG3 peptides", "type": "physicochemical", "settings": "700 μM peptide, 20 mM potassium phosphate pH 7.2, 20 °C, 180-300 nm, 5x averaged", "description": "Farnung et al. Supplementary Information […]\nH Capping with O H Resin cleavage O H Cyclization O […]\nacid anhydride deprotection\nFigure S11. Preparation of cyclized LIRATG3 peptide 6. a, Synthetic scheme describing the preparation of 6.\nA cysteine residue is introduced at the C-terminus of the LIR motif. Following standard Fmoc-SPPS the LIR peptide is capped at its N-terminus with α-chloroacetic acid anhydride. Following resin cleavage, the peptide is cyclized by cysteine alkylation. b, Analytical RP-HPLC chromatograms showing the cyclization of the LIR […]\npeptide to provide 6. […] Middle chromatogram\nFigure S12. CD spectra of linear and cyclic LIR ATG3 peptides 5 and 6. CD spectra of LIRATG3 peptides 5 and 6 were recorded in 20 mM KPhos buffer (pH 7.2) at a concentration of 700 μM. Cyclized LIRATG3 peptide 6 […]\nnm and an increase in band intensity at 215 nm.\nPlasmid Supplier Identiﬁer Dilution\nAnti-ATG5 Cell-Signalling #D5F5U 1:1,000\nAnti-β-Actin Thermo-Fisher #BA3R 1:2,000\nTable S2 Antibodies used in this study.\n2.9. Circular dichroism spectroscopy\nCD spectra were recorded on a JASCO J-1500 CD spectrometer in a 0.1 cm cuvette. Samples were measured in potassium phosphate (20 mM, pH 7.2) at 20 °C. Data were recorded between 180-300 nm with a measuring speed of 20 nm/min. Measurements were repeated (5x) and averaged.\nBackground spectrum was recorded and subtracted from measured spectra. […]"}}}
{"substance": "Ac-LEAIIEEDDGDGGWVDTYHAGGGK-OH [compound 5]", "values": [{"measurement": "Block of ATG3 modification", "setting": "[1]", "value": "blocked ATG3 modification in a concentration-dependent manner"}, {"measurement": "Secondary structure by CD", "setting": "[2]", "value": "not structured in solution"}]}
